Source: the supplement of paper PMC7840683
± gives the standard deviation of the averaged measurements.

Tested on: HepaRG
Assay: LDH release cytotoxicity, % of total lysis control; higher = more cytotoxic
Conditions: 48 h
Procedure, shortened: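 Single-lot HepaRG cells in collagen I-coated 96-well plates were treated for 48 h in serum-free induction medium containing 0.5% DMSO with test chemicals in eight-point half-log series up to 100 µM. For total lysis, wells received 0.1% Triton X. LDH in 50 µL spent medium was assayed by resorufin fluorescence with CytoTox-ONE. Percent cytotoxicity was normalized to the on-plate vehicle and total lysis controls, with duplicates averaged.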

| SMILES | LDH release cytotoxicity (0.03162 µM) [%] | LDH release cytotoxicity (0.1 µM) [%] | LDH release cytotoxicity (0.3162278 µM) [%] | LDH release cytotoxicity (1 µM) [%] | LDH release cytotoxicity (3.16228 µM) [%] | LDH release cytotoxicity (10 µM) [%] | LDH release cytotoxicity (31.6228 µM) [%] | LDH release cytotoxicity (100 µM) [%] | LDH release cytotoxicity (0.031623 µM) [%] | LDH release cytotoxicity (0.316228 µM) [%] |
| --- | --- | --- | --- | --- | --- | --- | --- | --- | --- | --- |
| C#CCOS(=O)OC1CCCCC1Oc1ccc(C(C)(C)C)cc1 (configuration not stated) [Propargite] | -0.16 ± 0.35 | -0.456 ± 1.3 | -0.537 ± 0.23 | 0.246 ± 0.3 | -0.49 ± 0.87 | -0.575 ± 0.68 | 62.8 ± 4 | 83.83 ± 0.65 | – | – |
| CC(COc1ccc(Oc2ccccc2)cc1)Oc1ccccn1 (configuration not stated) [Pyriproxyfen] | – | -2.74 ± 1.2 | – | -3 ± 0.73 | -3.01 ± 0.27 | -2.89 ± 0.094 | -1.8 ± 0.12 | 1.18 ± 2.2 | -1.46 ± 0.43 | -2.85 ± 0.24 |
| OCCN(CCO)CCO [Triethanolamine] | -0.32 ± 0.27 | -0.911 ± 0.6 | -1.61 ± 0.09 | -1.26 ± 0.23 | -1.19 ± 1.4 | -0.416 ± 1.2 | -0.346 ± 0.72 | 1.04 ± 0.38 | – | – |
| COC(=O)C=C(C)OP(=O)(OC)OC [Mevinphos] | -1.49 ± 1.2 | -1.28 ± 0.3 | -0.769 ± 1.7 | -2.52 ± 0.67 | -2.16 ± 0.68 | -0.179 ± 0.88 | -1.3 ± 0.79 | 1.1 ± 2 | – | – |
| O=C(O)c1cccc(CC2COc3ccc(OCc4nc5cc(F)ccc5s4)cc3C2O)c1 (configuration not stated) | -0.0534 ± 0.17 | -0.136 ± 0.15 | -0.338 ± 0.55 | -1.53 ± 0.39 | -0.67 ± 0.41 | -0.7031 ± 0.0048 | 0.475 ± 0.99 | 39.6 ± 3.9 | – | – |
| CC(C)CCCCCCOC(=O)CCCCC(=O)OCCCCCCC(C)C [Hexanedioic acid, diisononyl ester] | -1.22 ± 0.85 | -0.123 ± 0.24 | 0.647 ± 0.098 | -0.997 ± 1.1 | 0.19 ± 0.33 | 0.0398 ± 0.088 | 0.663 ± 0.4 | 0.377 ± 0.98 | – | – |
| N#Cc1c(Cl)c(Cl)c(Cl)c(C#N)c1Cl [Chlorothalonil] | – | -1.96 ± 3.7 | – | -2.72 ± 1.5 | -0.469 ± 1.9 | 4.78 ± 0.7 | 20.5 ± 1.1 | 48.7 ± 34 | -0.0289 ± 0.73 | -3.42 ± 0.39 |
| O=C(O)CCN(C1(C(=O)NO)CCCC1)S(=O)(=O)c1ccc(Oc2ccc(F)cc2)cc1 | -0.305 ± 0.084 | -1.01 ± 0.31 | -0.589 ± 0.48 | -0.176 ± 0.047 | -0.0966 ± 0.082 | 0.986 ± 0.25 | 0.193 ± 0.77 | 1.19 ± 0.31 | – | – |
| CCCCCCCCCCCCc1ccc(S(=O)(=O)O)cc1 [Dodecylbenzenesulfonic acid] | – | -1.4 ± 1.3 | – | -3.27 ± 1.6 | -2.52 ± 0.99 | -2.56 ± 0.4 | -1.64 ± 0.34 | 65.65 ± 0.34 | -1.05 ± 0.58 | -2.17 ± 0.79 |
| CCCCOC(=O)C(C)Oc1ccc(Oc2ccc(C(F)(F)F)cn2)cc1 (configuration not stated) [Fluazifop-butyl] | -0.307 ± 2.5 | -0.771 ± 1.4 | -0.631 ± 0.81 | -0.375 ± 0.17 | -0.996 ± 0.14 | 0.207 ± 1.2 | 0.479 ± 1.7 | 1.84 ± 2.7 | – | – |
| NC(=O)N1C(=O)C(C(=O)c2cc(Cl)cs2)c2cc(F)c(Cl)cc21 (configuration not stated) | -0.6756 ± 0.0047 | -0.635 ± 1.4 | -0.381 ± 0.96 | -0.761 ± 0.069 | -0.334 ± 0.65 | 1.12 ± 0.053 | 64.6 ± 1 | 50.6 ± 8.4 | – | – |
| c1ccc2c(c1)Nc1ccccc1S2 [Phenothiazine] | -1.44 ± 0.67 | -0.242 ± 0.75 | -1.08 ± 1 | -2.16 ± 0.13 | -1.87 ± 0.84 | -1.1 ± 0.59 | 0.496 ± 0.65 | 3.43 ± 0.83 | – | – |
| CCCCc1ccc2c(n1)C(c1ccc(OC)cc1CC(C)C(=O)O)C(C(=O)O)C2c1ccc2c(c1)OCO2 (configuration not stated) [MK-547] | -0.553 ± 0.95 | -1.23 ± 0.22 | -0.915 ± 0.25 | -1.66 ± 0.29 | -0.888 ± 0.3 | -0.832 ± 0.16 | -0.204 ± 0.43 | 0.0481 ± 0.055 | – | – |
| CC(C)(C)c1ccccc1 [tert-Butylbenzene] | -3.19 ± 0.23 | -2.41 ± 1.1 | -1.88 ± 0.86 | -2.09 ± 0.96 | -1.34 ± 0.44 | -1.35 ± 0.2 | -0.245 ± 1.8 | 0.779 ± 2.1 | – | – |
| CC1(C)C(=O)N(Cl)C(=O)N1Cl [1,3-Dichloro-5,5-dimethylhydantoin] | 0.112 ± 0.0031 | -1.567 ± 0.014 | -0.979 ± 0.12 | -0.604 ± 0.23 | -0.443 ± 0.098 | -0.243 ± 0.15 | 1.54 ± 2 | 0.626 ± 0.89 | – | – |
| c1ccc2cc3ccccc3cc2c1 [Anthracene] | – | -2.92 ± 1.7 | – | -2.01 ± 1.3 | -2.51 ± 0.11 | -2.69 | -1.53 ± 1.4 | 2.42 ± 3.7 | -2.31 ± 1.3 | -3.34 ± 0.24 |
| Cc1cc2c3c(c1)C(c1ccccc1)=NC(NC(=O)c1ccncc1)C(=O)N3CC2 (configuration not stated) [CI-1018] | -1.91 ± 0.18 | -1.63 ± 0.47 | -1.51 ± 1.7 | -2.27 ± 0.065 | -1.93 ± 0.3 | -1.89 ± 0.24 | -2.24 ± 0.049 | 5.94 ± 0.8 | – | – |
| CN1CCN(c2ccccc2C=C2SCCN(c3ccc(Cl)c(Cl)c3)C2=O)CC1 [Elzasonan] | 0.236 ± 2.3 | 0.483 ± 1.1 | 0.649 ± 0.75 | -0.238 ± 0.039 | -0.446 ± 0.23 | 0.355 ± 0.19 | 9.77 ± 0.73 | 88.8 ± 3.5 | – | – |
| CCCCOC(=O)c1ccc(O)cc1 [Butylparaben] | -1.57 ± 0.12 | -1.1 ± 0.021 | -1.42 ± 0.72 | -2.15 ± 1.2 | -2.51 ± 0.09 | -2.14 ± 0.23 | -2.11 ± 0.81 | -0.69 ± 0.9 | – | – |
